In patent US20180200257A1, “METHODS FOR THE TREATMENT OF INFLAMMATORY DISORDERS” (Galapagos NV, priority 2015, published 2018):

Test system: subjects with moderately to severely active RA who have an inadequate response to methotrexate (MTX)
Test: Study 1 (add-on to MTX) - Subject VAS mean changes (ACR patient assessment)
Assay type: in vivo, human
Method: The scale is 100 mm, the decrease in mm is shown. […] (dotted line), 100 mg q.d. (dashed line) or 200 mg q.d. (dark solid line). […] The results shown in the figures are calculated using Last-Observation-Carried-Forward (LOCF), which handles missing data by assigning the value recorded at the patient's last visit to all subsequent missed visits.
Double-blind, placebo-controlled add on study in subjects with moderately to severely active RA who have an inadequate response to methotrexate (MTX) (oral or parenteral).
595 subjects randomized to one of 6 dose regimens of Compound 1 (dosed as [Compound 1:HCl:3H2O]) (3 dose levels administered either once or twice daily) or placebo on top of each subject's stable dose of MTX.
Compound 1 (dosed as [Compound 1:HCl:3H2O]) is dosed for twelve weeks once daily (q.d.) (50 mg, 100 mg or 200 mg) or twice daily (b.i.d.) (25 mg, 50 mg or 100 mg); or placebo.
At Week 12, the subjects on placebo who have not achieved 20% improvement in swollen joint count (SJC66) and tender joint count (TJC68) are re-randomized automatically to receive Compound 1 (dosed as a [Compound 1:HCl:3H2O]) either at 100 mg q.d. or 50 mg b.i.d. doses in a blinded fashion; subjects on 50 mg q.d. who have not achieved 20% improvement in SJC66 and TJC68 will be assigned to 100 mg q.d. and subjects on 25 mg b.i.d. that have not achieved a 20% improvement in SJC66 and TJC68 will be assigned to 50 mg b.i.d. Subjects who switch treatment at week 12 are handled as if they discontinued at week 12 for the purpose of statistical analysis, whereas subjects in the other groups will maintain their randomized treatment until Week 24.
Firstly, the patient is asked to make a vertical mark on a 100 mm Visual Analog Scale (VAS) corresponding to their general health or global disease activity on a touch screen to measure the VAS value, which is used in the formula below.
The American College of Rheumatology (ACR) composite score, which evaluates clinical improvement relative to an initial assessment, is a commonly accepted efficacy end point for clinical trials in patients with rheumatoid arthritis. The ACR score correspond to a percentage improvement in pre-set parameters, and therefore measures the evolution of the disease in a patient. For example, ACR20 denotes at least 20% improvement in tender and swollen joint counts and in three of the following end points: global assessment by the patient, global assessment by the doctor, C reactive protein (CRP), patient's pain Visual Analogue Scale and Health Assessment Questionnaire Score. The number of swollen joints, ESR and CRP correlate with radiographic progression of joint damage, whereas tender joint counts, as well as global assessments by doctors and patients, and patients' reports of pain, are sensitive to change in clinical outcomes. Physical function, as assessed by the Health Assessment Questionnaire Score, is a potent predictor of the risk of disability in rheumatoid arthritis (Felson and American College of Rheumatology Committee to Reevaluate Improvement Criteria, 2007; Felson et al., 1993).

For `O=C(Nc1nc2cccc(-c3ccc(CN4CCS(=O)(=O)CC4)cc3)n2n1)C1CC1` [Compound 1, cyclopropanecarboxylic acid {5-[4-(1,1-dioxo-thiomorpholin-4-ylmethyl)-phenyl]-[1,2,4]triazolo[1,5-a]pyridin-2-yl}-amide], the “Subject VAS mean changes (ACR patient assessment)” value (shortened to “Subject VAS mean changes”) (50 mg q.d., week 0, LOCF, 24 weeks results) was 0.0, the “Subject VAS mean changes” value (50 mg q.d., week 2, LOCF, 24 weeks results) was −15.5 and the “Subject VAS mean changes” value (50 mg q.d., week 4, LOCF, 24 weeks results) was −20.9. For the same compound, the “Subject VAS mean changes” value (50 mg q.d., week 8, LOCF, 24 weeks results) was −26.4, the “Subject VAS mean changes” value (50 mg q.d., week 12, LOCF, 24 weeks results) was −25.2 and the “Subject VAS mean changes” value (50 mg q.d., week 16, LOCF, 24 weeks results) was −27.7. The “Subject VAS mean changes” value (50 mg q.d., week 20, LOCF, 24 weeks results) was −28.1, the “Subject VAS mean changes” value (50 mg q.d., week 24, LOCF, 24 weeks results) was −29.4 and the “Subject VAS mean changes” value (50 mg q.d., week 0, LOCF, 12 weeks results) was 0.0. For the same compound, the “Subject VAS mean changes” value (50 mg q.d., week 1, LOCF, 12 weeks results) was −11.2, the “Subject VAS mean changes” value (50 mg q.d., week 2, LOCF, 12 weeks results) was −15.5 and the “Subject VAS mean changes” value (50 mg q.d., week 4, LOCF, 12 weeks results) was −20.9. The “Subject VAS mean changes” value (50 mg q.d., week 8, LOCF, 12 weeks results) was −26.4, the “Subject VAS mean changes” value (50 mg q.d., week 12, LOCF, 12 weeks results) was −25.2 and the “Subject VAS mean changes” value (100 mg q.d., week 0, LOCF, 24 weeks results) was 0.0. The “Subject VAS mean changes” value (100 mg q.d., week 2, LOCF, 24 weeks results) was −20.9, the “Subject VAS mean changes” value (100 mg q.d., week 4, LOCF, 24 weeks results) was −24.4 and the “Subject VAS mean changes” value (100 mg q.d., week 8, LOCF, 24 weeks results) was −29.8. For the same compound, the “Subject VAS mean changes” value (100 mg q.d., week 12, LOCF, 24 weeks results) was −29.1, the “Subject VAS mean changes” value (100 mg q.d., week 16, LOCF, 24 weeks results) was −31.7 and the “Subject VAS mean changes” value (100 mg q.d., week 20, LOCF, 24 weeks results) was −35.1. The “Subject VAS mean changes” value (100 mg q.d., week 24, LOCF, 24 weeks results) was −34.4, the “Subject VAS mean changes” value (100 mg q.d., week 0, LOCF, 12 weeks results) was 0.0 and the “Subject VAS mean changes” value (100 mg q.d., week 1, LOCF, 12 weeks results) was −13.2. For the same compound, the “Subject VAS mean changes” value (100 mg q.d., week 2, LOCF, 12 weeks results) was −20.8, the “Subject VAS mean changes” value (100 mg q.d., week 4, LOCF, 12 weeks results) was −24.4 and the “Subject VAS mean changes” value (100 mg q.d., week 8, LOCF, 12 weeks results) was −29.8. The “Subject VAS mean changes” value (100 mg q.d., week 12, LOCF, 12 weeks results) was −29.1, the “Subject VAS mean changes” value (200 mg q.d., week 0, LOCF, 24 weeks results) was 0.0 and the “Subject VAS mean changes” value (200 mg q.d., week 2, LOCF, 24 weeks results) was −21.8. The “Subject VAS mean changes” value (200 mg q.d., week 4, LOCF, 24 weeks results) was −24.9, the “Subject VAS mean changes” value (200 mg q.d., week 8, LOCF, 24 weeks results) was −29.6 and the “Subject VAS mean changes” value (200 mg q.d., week 12, LOCF, 24 weeks results) was −34.2. For the same compound, the “Subject VAS mean changes” value (200 mg q.d., week 16, LOCF, 24 weeks results) was −32.9, the “Subject VAS mean changes” value (200 mg q.d., week 20, LOCF, 24 weeks results) was −33.0 and the “Subject VAS mean changes” value (200 mg q.d., week 24, LOCF, 24 weeks results) was −34.9. For the same compound, the “Subject VAS mean changes” value (200 mg q.d., week 0, LOCF, 12 weeks results) was 0.0, the “Subject VAS mean changes” value (200 mg q.d., week 1, LOCF, 12 weeks results) was −16.7 and the “Subject VAS mean changes” value (200 mg q.d., week 2, LOCF, 12 weeks results) was −21.8. The “Subject VAS mean changes” value (200 mg q.d., week 4, LOCF, 12 weeks results) was −25.2, the “Subject VAS mean changes” value (200 mg q.d., week 8, LOCF, 12 weeks results) was −29.6 and the “Subject VAS mean changes” value (200 mg q.d., week 12, LOCF, 12 weeks results) was −34.0. The “Subject VAS mean changes” value (2 × 25 mg b.i.d., week 0, LOCF, 12 weeks results) was 0.0, the “Subject VAS mean changes” value (2 × 25 mg b.i.d., week 0, LOCF, 24 weeks results) was 0.0 and the “Subject VAS mean changes” value (2 × 25 mg b.i.d., week 1, LOCF, 12 weeks results) was −8.2. For the same compound, the “Subject VAS mean changes” value (2 × 25 mg b.i.d., week 2, LOCF, 12 weeks results) was −11.7, the “Subject VAS mean changes” value (2 × 25 mg b.i.d., week 2, LOCF, 24 weeks results) was −11.7 and the “Subject VAS mean changes” value (2 × 25 mg b.i.d., week 4, LOCF, 12 weeks results) was −16.0. The “Subject VAS mean changes” value (2 × 25 mg b.i.d., week 4, LOCF, 24 weeks results) was −16.0, the “Subject VAS mean changes” value (2 × 25 mg b.i.d., week 8, LOCF, 12 weeks results) was −22.2 and the “Subject VAS mean changes” value (2 × 25 mg b.i.d., week 8, LOCF, 24 weeks results) was −22.2. The “Subject VAS mean changes” value (2 × 25 mg b.i.d., week 12, LOCF, 12 weeks results) was −25.2, the “Subject VAS mean changes” value (2 × 25 mg b.i.d., week 12, LOCF, 24 weeks results) was −25.2 and the “Subject VAS mean changes” value (2 × 25 mg b.i.d., week 16, LOCF, 24 weeks results) was −25.5. The “Subject VAS mean changes” value (2 × 25 mg b.i.d., week 20, LOCF, 24 weeks results) was −25.6, the “Subject VAS mean changes” value (2 × 25 mg b.i.d., week 24, LOCF, 24 weeks results) was −27.3 and the “Subject VAS mean changes” value (2 × 50 mg b.i.d., week 0, LOCF, 12 weeks results) was 0.0. For the same compound, the “Subject VAS mean changes” value (2 × 50 mg b.i.d., week 1, LOCF, 12 weeks results) was −8.8, the “Subject VAS mean changes” value (2 × 50 mg b.i.d., week 2, LOCF, 12 weeks results) was −13.6 and the “Subject VAS mean changes” value (2 × 50 mg b.i.d., week 2, LOCF, 24 weeks results) was −13.8. For the same compound, the “Subject VAS mean changes” value (2 × 50 mg b.i.d., week 4, LOCF, 12 weeks results) was −16.9, the “Subject VAS mean changes” value (2 × 50 mg b.i.d., week 4, LOCF, 24 weeks results) was −16.9 and the “Subject VAS mean changes” value (2 × 50 mg b.i.d., week 8, LOCF, 12 weeks results) was −21.0. For the same compound, the “Subject VAS mean changes” value (2 × 50 mg b.i.d., week 8, LOCF, 24 weeks results) was −21.0, the “Subject VAS mean changes” value (2 × 50 mg b.i.d., week 12, LOCF, 12 weeks results) was −27.0 and the “Subject VAS mean changes” value (2 × 50 mg b.i.d., week 12, LOCF, 24 weeks results) was −27.0. The “Subject VAS mean changes” value (2 × 50 mg b.i.d., week 16, LOCF, 24 weeks results) was −26.3, the “Subject VAS mean changes” value (2 × 50 mg b.i.d., week 20, LOCF, 24 weeks results) was −29.7 and the “Subject VAS mean changes” value (2 × 50 mg b.i.d., week 24, LOCF, 24 weeks results) was −28.1. The “Subject VAS mean changes” value (2 × 100 mg b.i.d., week 0, LOCF, 12 weeks results) was 0.0, the “Subject VAS mean changes” value (2 × 100 mg b.i.d., week 1, LOCF, 12 weeks results) was −20.0 and the “Subject VAS mean changes” value (2 × 100 mg b.i.d., week 2, LOCF, 12 weeks results) was −25.5. The “Subject VAS mean changes” value (2 × 100 mg b.i.d., week 2, LOCF, 24 weeks results) was −25.5, the “Subject VAS mean changes” value (2 × 100 mg b.i.d., week 4, LOCF, 12 weeks results) was −28.6 and the “Subject VAS mean changes” value (2 × 100 mg b.i.d., week 4, LOCF, 24 weeks results) was −28.2. For the same compound, the “Subject VAS mean changes” value (2 × 100 mg b.i.d., week 8, LOCF, 12 weeks results) was −32.8, the “Subject VAS mean changes” value (2 × 100 mg b.i.d., week 8, LOCF, 24 weeks results) was −33.0 and the “Subject VAS mean changes” value (2 × 100 mg b.i.d., week 12, LOCF, 12 weeks results) was −35.6. The “Subject VAS mean changes” value (2 × 100 mg b.i.d., week 12, LOCF, 24 weeks results) was −35.6, the “Subject VAS mean changes” value (2 × 100 mg b.i.d., week 16, LOCF, 24 weeks results) was −37.9 and the “Subject VAS mean changes” value (2 × 100 mg b.i.d., week 20, LOCF, 24 weeks results) was −39.1. For the same compound, the “Subject VAS mean changes” value (2 × 100 mg b.i.d., week 24, LOCF, 24 weeks results) was −39.1.
